Experimental data as given in patent US20250051279A1, “TRYPTAMINE COMPOSITIONS AND METHODS” (priority 2022, published 2025).

Tests used:
[1] = oral; cited from earlier work
[2] = Dynamic vapor sorption (DVS) hygroscopicity; format: physicochemical; set-up: key to Hygroscopicity: “+/+/+” indicates most favorable; “+/+” indicates more favorable; “+” indicates favorable; “−” indicates unfavorable; “−/−” indicates more unfavorable; “−/−/−” indicates most unfavorable; details: for physical form conversion throughout the DVS cycle: DVS cycle 0-95% RH; for hygroscopicity (in words): DVS isotherm; for acquisition of water on exposure to elevated relative humidities: >95% RH
Source text: Pharmaceutically acceptable salts of the compound of Formula (I) suitable for pharmaceutical manufacture may also be characterized as non-hygroscopic or slightly hygroscopic, preferably non-hygroscopic. The hygroscopicity may be measured herein by performing a moisture adsorption-desorption isotherm using a dynamic vapor sorption (DVS) analyzer with a starting exposure of 30% relative humidity (RH), increasing humidity up to 95% RH, decreasing humidity to 0%, and finally increasing the humidity back to the starting 30% RH, and classified according to the following: • non-hygroscopic: <0.2%; slightly hygroscopic: ≥0.2% and <2%; hygroscopic: ≥2% and <15%; very hygroscopic: ≥15%; deliquescent: sufficient water is absorbed to form a liquid; all values measured as weight increase (w/w due to acquisition of water) at >95% RH and 25° C.
Dynamic vapor sorption-desorption experiments were carried out using a DVS Resolution instrument supplied by Surface Measurement Systems. Data were acquired using the following acquisition parameters: • Solvent; Water • Start relative humidity; 30% RH • Relative humidity cycle (% RH); 30, 40, 50, 60, 70, 80, 90, 95, 90, 80, 70, 60, 50, 40, 30, 20, 10, 0, 10, 20, 30 • Equilibrium condition (dm/dt); 0.002%/minute • Equilibrium condition window; 10 minutes • Minimum stage period; 5 minutes • Maximum stage period; 360 minutes • Temperature; 25° C. • Carrier gas; Nitrogen • Carrier gas flow rate; 200 mL·min^−1 (Total)
Typically, 20-50 mg of the test substance was mounted in a gauze basket and transferred to the sample port. Excess static electricity was removed throughout sample handling and sample mounting using a ^210Po static eliminator. Instrument performance checks were completed using traceable samples of sodium chloride and lithium chloride. For selected samples, the cycle was repeated using the same sample to assess any change in physical form induced on exposure to elevated relative humidity.

[3] = Salt form assessment (crystallization propensity, DSC/XRPD physical properties, appearance, counter-ion acceptability, salt suitability); format: physicochemical; set-up: key: “+/+/+” indicates most favorable; “+/+” indicates more favorable; “+” indicates favorable; “−” indicates unfavorable; “−/−” indicates more unfavorable; “−/−/−” indicates most unfavorable; details: for Physical properties (crystallinity, melt, enthalpy, polymorph tendency): DSC, XRPD; for Crystallization propensity: crystallization from ethanol
Protocol: Samples were analyzed by differential scanning calorimetry (DSC), X-ray powder diffraction (XRPD), and dynamic vapor sorption (DVS). In addition, the appearance and visual properties of each sample were assessed, in addition to propensity for crystallization.
A summary of the data obtained from the analyses of the individual salt forms of Examples 1-9 are presented in Table 10, with advantageous and detrimental properties summarized using the following nomenclature: “+/+/+” indicates most favorable; “+/+” indicates more favorable; “+” indicates favorable; “−” indicates unfavorable; “−/−” indicates more unfavorable; “−/−/−” indicates most unfavorable.

[4] = prolonged storage; cited from earlier work

Structure (SMILES) | orally active dose (lowest) [1] [µg] | very strong psychedelic doses [1] [µg] | Hygroscopicity ([2]; DVS) | physical form conversion throughout the DVS cycle [2] | hygroscopicity (in words) [2] | acquisition of water on exposure to elevated relative humidities ([2]; DVS, 25° C.) [% w/w] | Appearance [3] | Physical properties (crystallinity, melt, enthalpy, polymorph tendency) [3] | Crystallization propensity [3] | water uptake ([2]; DVS, 25° C., on exposure to 95% RH) | behavior at elevated relative humidities ([2]; DVS) | water uptake at relative humidities exceeding 80% ([2]; DVS, >80% RH) | equilibrium water content ([2]; DVS, typical ambient relative humidities) [%] | storage sensitivity [4]
COc1cc(CCNCc2ccccc2OC)c(OC)cc1Cl [2C—C-NBOMe, 2-(4-Chloro-2,5-dimethoxyphenyl)-N-[(2-methoxyphenyl)methyl]ethan-1-amine] | ≥ 25 | 500 to 700 |  |  |  |  |  |  |  |  |  |  |  | 
CN(C)CCc1c[nH]c2ccccc12 [Example 1, 2-(1H-indol-3-yl)-N,N-dimethylethan-1-amine] |  |  | +/+/+ | no evidence of physical form conversion | no significant hygroscopicity | < 0.2 | +/+/+ | +/+/+ | +/+/+ |  |  |  |  | 
CN(C)CCc1c[nH]c2ccccc12 [Example 2, 2-(1H-indol-3-yl)-N,N-dimethylethan-1-amine] |  |  | +/+/+ | no evidence of physical form conversion | no significant hygroscopicity | < 0.05 | +/+/+ | +/+/+ | +/+/+ |  |  |  |  | 
CN(C)CCc1c[nH]c2ccccc12 [Example 3, 2-(1H-indol-3-yl)-N,N-dimethylethan-1-amine] |  |  | +/+/+ | no evidence of physical form conversion | no significant hygroscopicity | < 0.06 | +/+/+ | +/+/+ | + |  |  |  |  | 
CN(C)CCc1c[nH]c2ccccc12 [Example 4, 2-(1H-indol-3-yl)-N,N-dimethylethan-1-amine] |  |  | +/+/+ | no evidence of physical form conversion | no significant hygroscopicity | < 0.5 | +/+/+ | +/+/+ | − |  |  |  |  | 
CN(C)CCc1c[nH]c2ccccc12 [Example 5, 2-(1H-indol-3-yl)-N,N-dimethylethan-1-amine] |  |  | − |  |  |  | +/+ | +/+ | + | approximately 3 % w/w |  |  |  | 
CN(C)CCc1c[nH]c2ccccc12 [Example 6, 2-(1H-indol-3-yl)-N,N-dimethylethan-1-amine] |  |  | −/−/− |  |  |  | +/+/+ | +/+ | − |  | deliquesce |  |  | 
CN(C)CCc1c[nH]c2ccccc12 [Example 7, 2-(1H-indol-3-yl)-N,N-dimethylethan-1-amine] |  |  | −/−/− | a phase change was induced |  |  | − | −/− | − |  |  | excessive | > 3 | 
CN(C)CCc1c[nH]c2ccccc12 [Example 8, 2-(1H-indol-3-yl)-N,N-dimethylethan-1-amine] |  |  | −/−/− |  |  |  | − | −/− | − |  | deliquesce |  |  | 
CN(C)CCc1c[nH]c2ccccc12 [Example 9, 2-(1H-indol-3-yl)-N,N-dimethylethan-1-amine] |  |  | −/−/− |  |  |  | − | −/− | − |  |  |  |  | 
CN(C)CCc1c[nH]c2ccccc12 [Example I-1, 2-(1H-indol-3-yl)-N,N-dimethylethan-1-amine] |  |  |  |  |  |  |  |  |  |  |  |  |  | sensitive to oxygen, heat, and light
